# Test results published in patent US20200223837A1, “BENZOFURAN AMIDES AND HETEROAROMATIC ANALOGUES THEREOF FOR USE IN THERAPY” (European Molecular Biology Laboratory, priority 2017, published 2020).
# System: EGR1 promoter
# Experiment: EGR1 reporter assay (luciferase) in genomically engineered HeLa cell line
# Assay type: cell-based
# Conditions: Homo sapiens; EGR1 reporter HeLa cells, luciferase activity after 24 hours with compound
# Text: The compounds of the present invention can be characterized for their effect on expression of egr1 (early growth response protein 1) using an EGR1 reporter cell line.
# The HeLa cell line was genetically modified to provide a simple, robust and highly reproducible cell-based assay reporting the activity of an endogenous EGR1 promoter. In brief, a construct encoding EGFP and luciferase proteins, separated by a self-cleaving P2A peptide was inserted, using CRISPR, immediately downstream (3′) to the promoter of endogenous EGR1. Upon treatment with compounds, cells express EGFP and luciferase from EGR1 promoter, which can be readily detected either in live cells using microscopy or cytometry, or through detection of luciferase activity in cell lysates.
# To achieve stable genomic integration of an EGR1-promoter dual reporter, two plasmids were generated: one contained the reporter construct (eGFP-P2A-luciferase) flanked by homology arms that direct insertion into genomic DNA, by homologous recombination, of a break in genomic DNA generated by guide RNA targeted cleavage by Cas9 endonuclease. The gRNA expressing plasmid was based on px330 (56), into which a gRNA sequence that targets a break in gDNA close to the start codon of EGR1 was cloned. The left homology arm (encoding part of EGR1 promoter adjacent to its start codon) and right homology arm (encoding […] of start codon of EGR1) were cloned from gDNA using the following primers: […]
# The present compounds can be tested, e.g. by using a HeLa cell line carrying an EGR1 reporter construct which allows for expression of luciferase and eGFP (enhanced GFP) controlled by the EGR1 promoter. For this reporter cells are seeded in the wells of a 384 well microtiter plate at a density of 2000 cells per well in 48 μl of DMEM supplemented with 4.5 g/l glucose, 2 mM glutamine and 10% FCS and are incubated for 24 hours at 37° C. with 5% CO2 and 95% humidity. Then, an eleven point 1:3 serial dilution of each test compound, from an initial concentration of 100 μM, is prepared in DMSO and the dilutions are added to the cells in a volume of 2 μl per well. The cells are incubated for a further 24 hours, after which the luciferase activity of each well is determined by addition of 25 μl of luciferase substrate reaction mixture (Britelite™ plus, Perkin Elmer) and measuring the bioluminescence light output (EnVision Xcite plate reader, PerkinElmer).
# The compound of example 64 served as a positive control for this EGR1 reporter assay. The compound of example 64 had been identified in an initial high throughput screening campaign.
row,Compound,EC50 [µM]
1,"Cc1cnc(NC(=O)Cc2coc3c(C)c(C)ccc23)[nH]1 [Example 22, 2-(6,7-Dimethylbenzofuran-3-yl)-N-(5-methyl-1H-imidazol-2-yl)acetamide]",10 to 100
2,"O=C(Cc1coc2c(F)c(F)ccc12)Nc1ncc(C(F)(F)F)s1 [Example 39, 2-(6,7-Difluorobenzofuran-3-yl)-N-[5-(trifluoromethyl)thiazol-2-yl]acetamide]",0.01 to 10
3,"CCc1ccc2c(CC(=O)Nc3ncc(C)s3)coc2c1 [Example 40, 2-(6-Ethylbenzofuran-3-yl)-N-(5-methylthiazol-2-yl)acetamide]",0.01 to 10
4,"NC(=O)c1cnc(NC(=O)Cc2coc3cc4c(cc23)CCC4)s1 [Example 18, 2-[[2-(6,7-Dihydro-5H-cyclopenta[f]benzofuran-3-yl)acetyl]amino]thiazole-5-carboxamide]",10 to 100
5,"COc1ccc2c(CC(=O)Nc3nc(CC(N)=O)cs3)coc2c1 [Example 7, N-[4-(2-Amino-2-oxo-ethyl)thiazol-2-yl]-2-(6-methoxybenzofuran-3-yl)acetamide]",10 to 100
6,"Cc1cnc(NC(=O)Cc2coc3cc(C)c(C)cc23)s1 [Example 45, 2-(5,6-Dimethylbenzofuran-3-yl)-N-(5-methylthiazol-2-yl)acetamide]",0.01 to 10
7,"CCc1ccc2c(CC(=O)Nc3nc(-c4ccc(NC(C)=O)cc4)cs3)coc2c1 [Example 52, N-[4-(4-Acetamidophenyl)thiazol-2-yl]-2-(6-ethylbenzofuran-3-yl)acetamide]",0.01 to 10
8,"CC(=O)NCCc1ccc(-c2csc(NC(=O)Cc3coc4cc(C)ccc34)n2)s1 [Example 28, N-[4-[5-(2-Acetamidoethyl)-2-thienyl]thiazol-2-yl]-2-(6-methylbenzofuran-3-yl)acetamide]",0.01 to 10
9,"Cc1ccc2c(CC(=O)Nc3nccs3)coc2c1 [Example 42, 2-(6-Methylbenzofuran-3-yl)-N-thiazol-2-yl-acetamide]",0.01 to 10
10,"Cc1cnc(NC(=O)Cc2coc3cc4c(cc23)CCC4)o1 [Example 17, 2-(6,7-Dihydro-5H-cyclopenta[f]benzofuran-3-yl)-N-(5-methyloxazol-2-yl)acetamide]",10 to 100
11,"Cc1ccc2c(CC(=O)Nc3nc(-c4ccc(C)o4)cs3)coc2c1 [Example 36, 2-(6-Methylbenzofuran-3-yl)-N-[4-(5-methyl-2-furyl)thiazol-2-yl]acetamide]",0.01 to 10
12,"Cn1ccc(NC(=O)Cc2coc3cc4c(cc23)CCC4)n1 [Example 3, 2-(6,7-Dihydro-5H-cyclopenta[f]benzofuran-3-yl)-N-(1-methylpyrazol-3-yl)acetamide]",10 to 100
13,"N#Cc1cnc(NC(=O)Cc2coc3cc(Cl)ccc23)s1 [Example 46, 2-(6-Chlorobenzofuran-3-yl)-N-(5-cyanothiazol-2-yl)acetamide]",0.01 to 10
14,"COc1ccc(-c2csc(NC(=O)Cc3coc4cc(C)ccc34)n2)cc1OC [Example 50, N-[4-(3,4-Dimethoxyphenyl)thiazol-2-yl]-2-(6-methylbenzofuran-3-yl)acetamide]",0.01 to 10
15,"Cc1cnc(NC(=O)Cc2coc3c(C)cccc23)s1 [Example 10, 2-(7-Methylbenzofuran-3-yl)-N-(5-methylthiazol-2-yl)acetamide]",10 to 100
16,"Cc1cc2occ(CC(=O)N(c3ccc(F)cc3)c3nc4ccccc4s3)c2cc1C(C)C [Example 16, N-(1,3-Benzothiazol-2-yl)-N-(4-fluorophenyl)-2-(5-isopropyl-6-methyl-benzofuran-3-yl)acetamide]",10 to 100
17,"Cc1ccc2c(CC(=O)Nc3nc(-c4ccccn4)cs3)coc2c1 [Example 21, 2-(6-Methylbenzofuran-3-yl)-N-[4-(2-pyridyl)thiazol-2-yl]acetamide]",10 to 100
18,"O=C(Cc1coc2c(Cl)c(Cl)ccc12)Nc1ncc(C(F)(F)F)[nH]1 [Example 49, 2-(6,7-Dichlorobenzofuran-3-yl)-N-[5-(trifluoromethyl)-1H-imidazol-2-yl]acetamide]",0.01 to 10
19,"O=C(Cc1coc2cc(Cl)ccc12)Nc1ncc(C(F)(F)F)[nH]1 [Example 38, 2-(6-Chlorobenzofuran-3-yl)-N-[5-(trifluoromethyl)-1H-imidazol-2-yl]acetamide]",0.01 to 10

# Now from value to compound:
row,EC50 [µM],Compound
1,0.01 to 10,"CCc1cnc(NC(=O)Cc2coc3c(C)c(C)ccc23)s1 [Example 98, 2-(6,7-Dimethylbenzofuran-3-yl)-N-(5-ethylthiazol-2-yl)acetamide]"
2,0.01 to 10,"C=CCN(C(=O)Cc1coc2cc(C)ccc12)c1nc(-c2ccc(S(C)(=O)=O)cc2)cs1 [Example 70, N-Allyl-2-(6-methylbenzofuran-3-yl)-N-[4-(4-methylsulfonylphenyl)thiazol-2-yl]acetamide]"
3,0.01 to 10,"CCc1ccc2c(CC(=O)N(c3ccc(C(C)=O)cc3)c3nc4ccccc4s3)coc2c1 [Example 69, N-(4-Acetylphenyl)-N-(1,3-benzothiazol-2-yl)-2-(6-ethylbenzofuran-3-yl)acetamide]"
4,0.01 to 10,"Cc1ccc2c(CC(=O)Nc3ncc(C(F)(F)F)s3)coc2c1C [Example 99, 2-(6,7-Dimethylbenzofuran-3-yl)-N-[5-(trifluoromethyl)thiazol-2-yl]acetamide]"
5,0.01 to 10,"Cc1ccc2c(CC(=O)Nc3ncc(C(F)(F)F)s3)coc2c1Cl [Example 83, 2-(7-Chloro-6-methyl-benzofuran-3-yl)-N-[5-(trifluoromethyl)thiazol-2-yl]acetamide]"
6,0.01 to 10,"O=C(Cc1coc2cc3c(cc12)CCC3)NCCNc1ncc(CO)s1 [Example 80, 2-(6,7-Dihydro-5H-cyclopenta[f]benzofuran-3-yl)-N-[2-[[5-(hydroxymethyl)thiazol-2-yl]amino]ethyl]acetamide]"
7,0.01 to 10,"O=C(Cc1coc2c(Cl)cccc12)Nc1ncc(C(F)(F)F)s1 [Example 53, 2-(7-Chlorobenzofuran-3-yl)-N-[5-(trifluoromethyl)thiazol-2-yl]acetamide]"
8,0.01 to 10,"COc1ccc2c(CC(=O)N(c3ccc(SC(F)F)cc3)c3nc4ccccc4s3)coc2c1 [Example 77, N-(1,3-Benzothiazol-2-yl)-N-[4-(difluoromethylsulfanyl)phenyl]-2-(6-methoxybenzofuran-3-yl)acetamide]"
9,0.01 to 10,"COc1ccc(-c2csc(NC(=O)Cc3coc4cc(OC)ccc34)n2)cc1 [Example 71, 2-(6-Methoxybenzofuran-3-yl)-N-[4-(4-methoxyphenyl)thiazol-2-yl]acetamide]"
10,0.01 to 10,"COc1ccc(-c2csc(NC(=O)Cc3coc4cc(C)ccc34)n2)cc1Cl [Example 67, N-[4-(3-Chloro-4-methoxy-phenyl)thiazol-2-yl]-2-(6-methylbenzofuran-3-yl)acetamide]"
11,0.01 to 10,"Cc1ccc2c(CC(=O)N(c3ccc(SC(F)F)cc3)c3nc4ccccc4s3)coc2c1C [Example 82, N-(1,3-Benzothiazol-2-yl)-N-[4-(difluoromethylsulfanyl)phenyl]-2-(6,7-dimethylbenzofuran-3-yl)acetamide]"
12,0.01 to 10,"Cc1ccc2c(CC(=O)Nc3ncc(C(F)(F)F)[nH]3)coc2c1Cl [Example 58, 2-(7-Chloro-6-methyl-benzofuran-3-yl)-N-[5-(trifluoromethyl)-1H-imidazol-2-yl]acetamide]"
13,0.01 to 10,"Cc1ccc2c(CC(=O)Nc3ncc(C#N)s3)coc2c1Cl [Example 59, 2-(7-Chloro-6-methyl-benzofuran-3-yl)-N-(5-cyano-1H-thiazol-2-yl)acetamide]"
14,10 to 100,"Cc1cnc(NC(=O)Cc2coc3ncccc23)s1 [Example 104, 2-(Furo[2,3-b]pyridin-3-yl)-N-(5-methylthiazol-2-yl)acetamide]"
15,0.01 to 10,"Cc1cc2occ(CC(=O)N(c3ccc(SC(F)F)cc3)c3nc4ccccc4s3)c2cc1C(C)C [Example 81, N-(1,3-Benzothiazol-2-yl)-N-[4-(difluoromethylsulfanyl)phenyl]-2-(5-isopropyl-6-methyl-benzofuran-3-yl)acetamide]"
16,0.01 to 10,"COc1ccc2c(CC(=O)Nc3nc(-c4ccc(C5CCCCC5)cc4)cs3)coc2c1 [Example 76, N-[4-(4-Cyclohexylphenyl)thiazol-2-yl]-2-(6-methoxybenzofuran-3-yl)acetamide]"
17,0.01 to 10,"COCc1cnc(NC(=O)Cc2coc3cc4c(cc23)CCC4)s1 [Example 65, 2-(6,7-Dihydro-5H-cyclopenta[f]benzofuran-3-yl)-N-[5-(methoxymethyl)thiazol-2-yl]acetamide]"
18,0.01 to 10,"Cc1ccc2c(CC(=O)Nc3ncc(C(F)(F)F)[nH]3)coc2c1C [Example 55, 2-(6,7-Dimethylbenzofuran-3-yl)-N-[5-(trifluoromethyl)-1H-imidazol-2-yl]acetamide]"
